Laboratory results published in ChEMBL document CHEMBL1201862, “PubChem BioAssay data set” (2004).
Active and inactive are the calls of the source.

Columns and labels:
[1] = biological target: T1, Rac GTPase-activating protein 1 (Homo sapiens, UniProt Q9H0H5); test: blockers of MgcRacGAP-driven Rac1 GTP hydrolysis – biochemical, ADP Hunter fluorescence, primary and confirmatory, confirmation (AID 624330); type: functional
T1 sequence (Q9H0H5 whole entry): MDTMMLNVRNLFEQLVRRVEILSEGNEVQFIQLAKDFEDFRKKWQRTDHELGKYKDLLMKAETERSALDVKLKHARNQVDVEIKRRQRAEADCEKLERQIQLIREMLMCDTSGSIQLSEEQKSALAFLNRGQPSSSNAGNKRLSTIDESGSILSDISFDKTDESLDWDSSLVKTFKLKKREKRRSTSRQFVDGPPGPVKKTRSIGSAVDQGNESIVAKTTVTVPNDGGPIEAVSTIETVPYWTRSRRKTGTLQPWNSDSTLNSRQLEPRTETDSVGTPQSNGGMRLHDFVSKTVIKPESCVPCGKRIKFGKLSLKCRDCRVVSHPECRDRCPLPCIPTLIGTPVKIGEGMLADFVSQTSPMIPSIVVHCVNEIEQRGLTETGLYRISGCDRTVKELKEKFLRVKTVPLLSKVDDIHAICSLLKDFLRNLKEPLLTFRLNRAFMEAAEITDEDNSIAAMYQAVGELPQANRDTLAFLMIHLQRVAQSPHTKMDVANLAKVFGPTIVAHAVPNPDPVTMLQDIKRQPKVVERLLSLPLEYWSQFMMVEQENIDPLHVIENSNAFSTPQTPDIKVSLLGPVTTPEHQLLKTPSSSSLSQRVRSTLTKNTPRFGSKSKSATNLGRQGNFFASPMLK

[2] = Trypanosoma cruzi growth suppression in host cells – NIH3T3 host cells, beta-gal luminescence, confirmation (AID 2044); type: functional, cell-based;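 further: intracellular parasites grown in NIH/3T3 mouse fibroblasts as host cells; luminescent beta-galactosidase reporter signal from transgenic T. cruzi replicating inside host cells; inhibitors lower the luminescence signal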
[3] = NIH3T3 cell viability loss – ATP luminescence, mouse fibroblasts, counter-screen, dose response (AID 2010); type: functional, cell-based;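 further: cells exposed to compound for about 90 hours before reading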
[4] = viability loss in HeLa cells – cytotoxicity control for MgcRacGAP inhibitor project, dose response (AID 624300); type: functional
[5] = biological target: T2, Sentrin-specific protease 8 (Homo sapiens, UniProt Q96LD8); type: functional
T2 sequence (Q96LD8 whole entry): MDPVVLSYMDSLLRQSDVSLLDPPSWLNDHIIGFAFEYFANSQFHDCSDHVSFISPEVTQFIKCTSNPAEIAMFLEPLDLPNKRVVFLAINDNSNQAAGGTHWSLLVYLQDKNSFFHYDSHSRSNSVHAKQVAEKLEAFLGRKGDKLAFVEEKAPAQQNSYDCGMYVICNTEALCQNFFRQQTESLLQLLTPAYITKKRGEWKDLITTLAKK

[6] = biological target: T2, Sentrin-specific protease 8; type: functional; remark: listed apart in the source
[7] = loss of viability in HepG2 cells – cell-based, CellTiter-Glo, cherry-picked, cytotoxicity control for Shn3 inhibitor project, dose response (AID 624134); type: functional
[8] = blockers of HIV-1 ZM109 envelope-driven cell-cell fusion – HeLa effector, CEM target cells, luciferase, cherry-pick, dose response (AID 652058); type: functional, cell-based;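 further: luciferase signal from HIV-1 Env mediated cell-cell fusion of effector and target cells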
[9] = non-specific 3'UTR reporter inhibition in Clone20-Shn3RL – cell-based, Renilla luciferase, cherry-picked, counter-screen for Shn3 inhibitor project, dose response (AID 624133); type: functional
[10] = reduction of Shn3 3'UTR-driven luciferase in osteoblasts – cell-based, Clone20 osteoblasts, firefly luciferase, cherry-picked, dose response (AID 624132); type: functional;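 further: firefly luciferase luminescence from reporter carrying the Shn3 3'UTR in osteoblasts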
[11] = blockers of HIV-1 envelope-mediated cell-cell fusion – cherry-pick, dose response (AID 652057); type: functional, cell-based
[12] = off-target signal loss in HeLa-CEM21 co-culture – HeLa F-luc CTL cells, cherry-picked, counter-screen for HIV-1 Env fusion inhibitor project, dose response (AID 652040); type: functional, cell-based;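 further: potency for signal decrease marking cytotoxic or nonspecific inhibition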
Cytochrome P450 1A2 = biological target: T3, Cytochrome P450 1A2 (Homo sapiens, UniProt P05177);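 further: PubChem cytochrome P450 panel assay, CYP1A2 panel member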
T3 sequence (P05177 whole entry): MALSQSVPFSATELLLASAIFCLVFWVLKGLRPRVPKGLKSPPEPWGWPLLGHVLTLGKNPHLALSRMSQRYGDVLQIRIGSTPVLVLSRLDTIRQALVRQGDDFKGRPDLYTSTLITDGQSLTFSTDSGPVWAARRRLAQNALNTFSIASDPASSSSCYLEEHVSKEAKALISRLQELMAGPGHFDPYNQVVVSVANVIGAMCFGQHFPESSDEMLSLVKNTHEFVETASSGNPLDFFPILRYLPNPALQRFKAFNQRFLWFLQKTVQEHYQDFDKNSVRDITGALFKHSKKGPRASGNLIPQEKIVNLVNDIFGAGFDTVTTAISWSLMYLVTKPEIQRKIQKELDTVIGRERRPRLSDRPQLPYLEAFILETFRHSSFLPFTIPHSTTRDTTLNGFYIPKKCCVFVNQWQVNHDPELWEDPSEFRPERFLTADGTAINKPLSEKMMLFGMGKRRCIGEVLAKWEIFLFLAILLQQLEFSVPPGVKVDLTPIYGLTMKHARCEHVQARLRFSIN

[13] = HIV-1 AD8 envelope cell-cell fusion blockers – cherry-pick, dose response (AID 652062); type: functional, cell-based;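 further: luciferase signal from cell-cell fusion driven by HIV-1 clade B AD8 Env; potency is for inhibitors of fusion seen as a drop in luminescence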
[14] = viability loss in CEM21 cells – cell-based, CellTiter-Glo luminescence, cherry-picked, cytotoxicity control for viral fusion inhibitor project, dose response (AID 652042); type: functional;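 further: potency for signal decrease meaning cytotoxicity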
HEK293 [15] = test: cells; conditions: Homo sapiens
HEK293 [16] = test: cells; conditions: Homo sapiens; remark: listed apart in the source
[17] = system: Streptococcus sp. 'group A'; test: Streptococcus pyogenes SK(-)GAS viability under kanamycin – luminescence, BacTiterGlo, confirmation, counter-screen for streptokinase expression inhibitor project, dose response (AID 1900); type: functional, organism-based
Streptokinase A = biological target: T4, Streptokinase A (Streptococcus pyogenes serotype M1, UniProt P10520); test: viability-normalized secreted streptokinase activity reduction – plasminogen activation absorbance, OD405, dose response (AID 1914); type: functional, Streptococcus pyogenes M1 GAS;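 further: secreted streptokinase activity via plasminogen activation per viability signal from cell pellet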
T4 sequence (P10520 whole entry): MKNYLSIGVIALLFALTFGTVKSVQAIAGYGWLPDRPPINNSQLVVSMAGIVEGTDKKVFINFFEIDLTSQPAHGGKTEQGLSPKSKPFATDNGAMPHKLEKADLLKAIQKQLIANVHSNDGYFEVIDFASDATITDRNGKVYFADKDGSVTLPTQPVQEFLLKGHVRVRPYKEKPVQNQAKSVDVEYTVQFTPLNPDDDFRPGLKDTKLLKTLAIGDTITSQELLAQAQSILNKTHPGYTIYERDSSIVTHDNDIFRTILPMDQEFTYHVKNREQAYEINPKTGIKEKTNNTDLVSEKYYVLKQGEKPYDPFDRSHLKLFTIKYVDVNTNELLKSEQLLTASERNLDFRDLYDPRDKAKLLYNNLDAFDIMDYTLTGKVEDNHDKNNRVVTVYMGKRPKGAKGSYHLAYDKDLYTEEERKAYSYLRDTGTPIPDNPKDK

Streptococcus = test: GAS UMAA2166 growth inhibition – luminescence, BacTiterGlo, counter-screen for streptokinase expression inhibitor project, dose response (AID 1915); type: functional, organism-based;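 further: potency for reduction of bacterial viability or growth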
[18] = biological target: T5, Small ubiquitin-related modifier 1 (Homo sapiens, UniProt P63165); test: SUMO1 protein-protein binding blockers, potency – biochemical, FRET, dose response (AID 624383); type: functional; conditions: read-out: IC50_Mean
T5 sequence (P63165 whole entry): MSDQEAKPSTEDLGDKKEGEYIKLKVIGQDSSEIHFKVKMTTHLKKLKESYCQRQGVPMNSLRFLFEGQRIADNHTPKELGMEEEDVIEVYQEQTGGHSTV

[19] = biological target: T5, Small ubiquitin-related modifier 1; test: SUMO1 protein interaction blockers, potency – biochemical, fluorescence polarization, uHTS hits, dose response (AID 624382); type: functional; conditions: read-out: IC50_Mean
[20] = biological target: T6, Long-chain-fatty-acid--AMP ligase FadD28 (Mycobacterium tuberculosis, UniProt P9WQ59); test: Fluorescence polarization aasay to screen for inhibitors that compete for the binding of FadD28 to a bisubstrate Measured in Biochemical System Using Plate Reader - 2147-01_Inhibitor_Dose_CherryPick_Activity.; type: functional, Mycobacterium tuberculosis H37Rv
T6 sequence (P9WQ59 whole entry): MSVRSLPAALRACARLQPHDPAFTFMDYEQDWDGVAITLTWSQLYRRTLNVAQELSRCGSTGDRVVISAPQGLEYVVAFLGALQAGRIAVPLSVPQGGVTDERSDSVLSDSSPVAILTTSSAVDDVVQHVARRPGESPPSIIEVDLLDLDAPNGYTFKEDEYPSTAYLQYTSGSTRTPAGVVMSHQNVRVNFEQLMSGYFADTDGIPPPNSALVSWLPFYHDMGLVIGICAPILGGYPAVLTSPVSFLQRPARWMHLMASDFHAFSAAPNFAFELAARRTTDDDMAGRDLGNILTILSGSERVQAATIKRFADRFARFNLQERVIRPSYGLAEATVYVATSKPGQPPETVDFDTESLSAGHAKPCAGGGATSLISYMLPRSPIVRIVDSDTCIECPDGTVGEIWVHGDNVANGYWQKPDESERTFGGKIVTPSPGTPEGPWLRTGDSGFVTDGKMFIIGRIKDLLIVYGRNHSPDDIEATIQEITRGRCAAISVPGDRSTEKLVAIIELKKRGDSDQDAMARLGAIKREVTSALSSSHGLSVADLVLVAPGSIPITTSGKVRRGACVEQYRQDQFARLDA

[21] = biological target: T7, Microphthalmia-associated transcription factor (Homo sapiens, UniProt O75030); test: reducers of TRPM1 reporter luminescence, concentration series – cell-based, SK-MEL-5, cherry-picked, set 3, MITF inhibitor project, dose response (AID 493073); type: functional;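 further: SK-MEL-5 melanoma cells with luciferase driven by the MITF target TRPM1 promoter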
T7 sequence (O75030 whole entry): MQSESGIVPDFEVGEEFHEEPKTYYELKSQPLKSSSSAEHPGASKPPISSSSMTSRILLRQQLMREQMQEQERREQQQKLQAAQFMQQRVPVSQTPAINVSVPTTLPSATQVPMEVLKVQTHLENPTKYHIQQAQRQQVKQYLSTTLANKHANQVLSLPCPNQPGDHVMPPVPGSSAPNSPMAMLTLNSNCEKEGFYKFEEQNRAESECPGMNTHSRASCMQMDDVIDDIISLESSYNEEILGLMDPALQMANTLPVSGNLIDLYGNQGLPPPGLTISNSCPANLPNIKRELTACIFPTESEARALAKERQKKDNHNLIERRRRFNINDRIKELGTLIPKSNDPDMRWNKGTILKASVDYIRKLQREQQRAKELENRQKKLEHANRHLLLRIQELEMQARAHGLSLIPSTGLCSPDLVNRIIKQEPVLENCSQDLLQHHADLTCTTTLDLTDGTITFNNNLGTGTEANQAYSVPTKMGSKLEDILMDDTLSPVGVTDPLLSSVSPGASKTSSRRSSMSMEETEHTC

Structure (SMILES): COc1ccc(Br)cc1CNCCc1cccc(Cl)c1
- IC50 [1]: 130 µM (active)
- EC50 [2]: 1.12 µM (active)
- EC50 [3]: > 60 µM (not active)
- CC50 [4]: 100 µM (active)

Structure (SMILES): O=C(CCCn1c(=O)oc2ccccc21)N1CCc2ccccc2C1
- IC50 [5]: > 100 µM (inactive)
- IC50 [6]: 8 µM (active)

Structure (SMILES): O=C(Nc1ccc(Oc2ccccc2)cc1)C1CCN(c2c3c(nc4ncnn24)CCC3)CC1
- AC50 [7]: 7.3 µM (active)
- AC50 [8]: 9.59 µM (active)
- AC50 [9]: 10.5 µM (active)
- AC50 [10]: 5.64 µM (active)
- AC50 [11]: 3.83 µM (active)
- AC50 [12]: > 32 µM (inactive)
- AC50 (Cytochrome P450 1A2): 15.8 µM (inconclusive)
- AC50 [13]: 4.29 µM (active)
- AC50 [14]: 42.7 µM (active)

Structure (SMILES): CCC(C)(C)NC(=O)C(NS(=O)(=O)c1cccs1)c1ccccc1 (configuration not stated)
- AC50 [8]: 4.71 µM (active)
- AC50 [11]: 4.25 µM (active)
- AC50 [12]: 4.24 µM (active)
- EC50 (HEK293 [15]): > 59.6 µM (inactive)
- AC50 [13]: 5.84 µM (active)
- EC50 (HEK293 [16]): > 59.6 µM (inactive)

Structure (SMILES): Cc1cccc(NC(=O)c2cc3n(n2)C(C(F)(F)F)CC(c2ccc4c(c2)OCO4)N3)c1 (configuration not stated)
- EC50 [17]: 12.9 µM (active)
- AC50 [8]: 7.75 µM (active)
- EC50 (Streptokinase A): 28.7 µM (active)
- AC50 [11]: 7.49 µM (active)
- AC50 [12]: 4.41 µM (active)
- AC50 [13]: 17 µM (active)
- AC50 [14]: 61 µM (active)
- EC50 (Streptococcus): 139 µM (active)

Structure (SMILES): NNc1ccc([N+](=O)[O-])c2n[nH]c(O)c12
- IC50 [1]: 76.8 µM (active)
- IC50 [18]: 5.04 µM (active)
- IC50 [19]: > 66.6 µM (inactive)

Structure (SMILES): O=C(O)c1cccc(N/N=C/c2ccc(OC(F)(F)F)cc2)c1
- AC50 [20]: 39.7 µM (active)
- AC50 [21]: 5.95 µM (active)

Structure (SMILES): COc1cc(/C=N/NC(=O)CN(Cc2ccccc2)S(=O)(=O)c2ccc3c(c2)OCCO3)ccc1O
- IC50 [1]: 74.6 µM (active)
- CC50 [4]: 100 µM (active)
- AC50 [20]: > 100 µM (inactive)
